# Like-named read-outs stand apart in the source and are kept apart here.
# What was measured:
# [1] = Oral absorbability in dogs (drug concentration in plasma); assay type: in vivo, Male beagles (dog); conditions: dog
# Method: Male beagles for experimental use were fasted one night before the administration of the test drugs. The drugs were suspended in a 0.1% TWEEN 80--0.1M NaCl--50 mM phosphate buffer solution for administration. All the drugs were forcefully administered in an amount of 50 mg/kg using an oral probe for dogs. Three animals were used for each test group. Blood samples were taken 9 times; 0.25, 0.5, 1, 1.5, 2, 4, 6, 9 and 24 hours after the administration. Blood samples of 5 ml were taken at each sampling time using a heparin-treated disposable injection syringe. Each blood was centrifuged at 3000 rpm for 15 minutes to obtain plasma. Drug concentrations in plasma were measured using HPLC and then calculated from a calibration curve for a standard sample.
# [2] = physchem; assay type: physicochemical; conditions: water
# Method: Solubility in water was measured according to the Pharmacopoeia Japan.
# [3] = Oral absorbability test in mice (drug concentration in plasma); design: species or system 7-Week-old female CDF1 mice; conditions: mouse, in vivo
# Method: 7-Week-old female CDF1 mice were fasted one night before the administration of the test drugs. The drugs were suspended in an aqueous 0.1% TWEEN 80 solution for administration and were forcefully administered in an amount of 100 mg/kg (for the compound No. 2 of Example 1-(c)) and 109 mg/kg (for the compound No. 4 of Comparative Example 1) so as to get the equivalent molarity using a probe for oral administration. Three animals were used for each test group. Blood samples were taken 4 times; 0.5, 1.0, 2.0 and 4.0 hours after the administration. Blood samples were taken by cardiocentesis under anesthesia with chloroform using a heparin-treated disposable injection syringe, Each blood was centrifuged at 4° C. at 6000 rpm for 10 minutes to obtain plasma. Drug concentrations in plasma were measured using HPLC and then calculated from a calibration curve for a standard sample, Results are shown in the following Tables.
# [4] = test system: Vincristine-resistant mouse leukemia cells, P388/VCR; assay: Carcinostatic-effect-stimulating activity (IC50 of vincristine on vincristine-resistant cells); assay type: cell-based; conditions: 72 h, read-out: IC50 of vincristine
# Method: Carcinostatic-effect-stimulating activity
# Vincristine-resistant mouse leukemia cells, P388/VCR, were suspended at a concentration of 2×10^4 cells/ml in an RPMI-1640 medium solution containing […]. 2 ml of the cancer cell suspension per tube (12×75 mm) were inoculated and incubated at 37° C. in a 5% CO2 atmosphere. After 6 hours, vincristine and the compound No. 2 of Example 1-(c) at a concentration of 0.3, 1 or 3 microgram/ml and the incubation was continued at 37° C. under a 5% CO2 atmosphere for 72 hours. The cell culture was added to 9.5 ml of ISOTON II, the number of cells was counted using a call counter and then 50% growth inhibiting concentrations of vincristine IC50 (ng/ml) were calculated.
compound,measurement,setting,value
"O=C(C(c1ccccc1)c1ccccc1)N1CCN(CC(O)COc2cccc3ncccc23)CC1 (stereo not drawn) [compound No. 1, 5-[3-{4-(2,2diphenylacetyl)piperazin-1-yl}-2-hydroxypropoxy]quinoline]",concentration at 0.25 h,"[1]; in vivo, po, 50 mg/kg",2460 ng/mL
same,concentration at 0.5 h,"[1]; in vivo, po, 50 mg/kg",3370 ng/mL
same,concentration at 1 h,"[1]; in vivo, po, 50 mg/kg",4530 ng/mL
same,concentration at 1.5 h,"[1]; in vivo, po, 50 mg/kg",4350 ng/mL
same,concentration at 2 h,"[1]; in vivo, po, 50 mg/kg",4180 ng/mL
same,concentration at 4 h,"[1]; in vivo, po, 50 mg/kg",2430 ng/mL
same,concentration at 6 h,"[1]; in vivo, po, 50 mg/kg",1620 ng/mL
same,concentration at 9 h,"[1]; in vivo, po, 50 mg/kg",440 ng/mL
same,solubility,[2],< 1000 µg/mL
"O=C(C(c1ccccc1)c1ccccc1)N1CCN(CC(O)COc2cccc3ncccc23)CC1.O=C(O)CC(O)C(=O)O (stereo not drawn) [compound No. 4, 5-[3-{4-(2,2-diphenylacetyl)piperazin-1-yl)-2-hydroxypropoxy]quinoline malate]",concentration at 0.5 h,"[3]; female CDF1 mice, oral 109 mg/kg (equivalent molarity), 0.5 hr, read-out: Concentration in plasma, Average of 3 mice",14300 ng/mL
same,concentration at 1 h,"[3]; female CDF1 mice, oral 109 mg/kg (equivalent molarity), 1.0 hr, read-out: Concentration in plasma, Average of 3 mice",11400 ng/mL
same,concentration at 2 h,"[3]; female CDF1 mice, oral 109 mg/kg (equivalent molarity), 2.0 hr, read-out: Concentration in plasma, Average of 3 mice",11900 ng/mL
same,concentration at 4 h,"[3]; female CDF1 mice, oral 109 mg/kg (equivalent molarity), 4.0 hr, read-out: Concentration in plasma, Average of 3 mice",5990 ng/mL
"CC[C@]1(O)C[C@H]2CN(CCc3c([nH]c4ccccc34)[C@@](C(=O)OC)(c3cc4c(cc3OC)N(C=O)[C@H]3[C@@](O)(C(=O)OC)[C@H](OC(C)=O)[C@]5(CC)C=CCN6CC[C@]43[C@@H]65)C2)C1 [vincristine, reference compound]",IC50,[4],0.142 µg/mL
"O=C(C(c1ccccc1)c1ccccc1)N1CCN(CC(O)COc2cccc3ncccc23)CC1.O=C(O)/C=C/C(=O)O (stereo not drawn) [compound No. 2, 5-[3-{4-(2,2-diphenylacetyl)piperazin-1-yl}-2-hydroxypropoxy]quinoline fumarate]",concentration at 0.5 h,"[3]; po, 100 mg/kg",18000 ng/mL
same,concentration at 1 h,"[3]; po, 100 mg/kg",21800 ng/mL
same,concentration at 2 h,"[3]; po, 100 mg/kg",16000 ng/mL
same,concentration at 4 h,"[3]; po, 100 mg/kg",13700 ng/mL
same,IC50,[4]; vincristine with compound at 0.3 microgram/ml,0.0569 µg/mL
same,IC50,[4]; vincristine with compound at 1 microgram/ml,0.022 µg/mL
same,IC50,[4]; vincristine with compound at 3 microgram/ml,0.00412 µg/mL
same,concentration at 0.5 h,"[1]; plasma, male beagles, oral 50 mg/kg, 0.5 hr, read-out: Concentration in plasma, Average",14700 ng/mL
same,concentration at 1 h,"[1]; plasma, male beagles, oral 50 mg/kg, 1 hr, read-out: Concentration in plasma, Average",13200 ng/mL
same,concentration at 1.5 h,"[1]; plasma, male beagles, oral 50 mg/kg, 1.5 hr, read-out: Concentration in plasma, Average",12700 ng/mL
same,concentration at 2 h,"[1]; plasma, male beagles, oral 50 mg/kg, 2 hr, read-out: Concentration in plasma, Average",10500 ng/mL
same,concentration at 4 h,"[1]; plasma, male beagles, oral 50 mg/kg, 4 hr, read-out: Concentration in plasma, Average",6760 ng/mL
same,concentration at 6 h,"[1]; plasma, male beagles, oral 50 mg/kg, 6 hr, read-out: Concentration in plasma, Average",3700 ng/mL
same,concentration at 9 h,"[1]; plasma, male beagles, oral 50 mg/kg, 9 hr, read-out: Concentration in plasma, Average",1210 ng/mL
same,concentration at 24 h,"[1]; plasma, male beagles, oral 50 mg/kg, 24 hr",30 ng/mL
same,solubility,[2],1400 µg/mL

# — patent US5434155A, “Quinoline derivative fumarates” (priority 1992, dated 1995)
